Measured values taken from PubChem BioAssay AID328 (DTP/NCI, 2004).
Values joined by “and” are separate entries in the source; they are usually repeats but may differ in a detail not shown here. Equal entries are not always repeated. Toxic doses and inconclusive results are not listed.

System: BDF1 mice, P388 leukemia ip, median survival T/C
Experiment: NCI In Vivo Anticancer Drug Screen. Data for tumor model P388 Leukemia (intraperitoneal) in B6D2F1 (BDF1) mice
Details: endpoint: median survival time, higher = longer survival
Method in brief: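 Survival ratio, drug arm over vehicle arm, in mice with a transplanted tumour.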

[1] = dose: 50.0 mg/kg/injection, schedule: Q01DX009 (ip), vehicle: saline with Tween-80
[2] = dose: 100.0 mg/kg/injection, schedule: Q01DX009 (ip), vehicle: saline with Tween-80
[3] = dose: 200.0 mg/kg/injection, schedule: Q01DX009 (ip), vehicle: saline with Tween-80
[4] = dose: 400.0 mg/kg/injection, schedule: Q01DX009 (ip), vehicle: saline with Tween-80
[5] = dose: 50.0 mg/kg/injection, schedule: Q04DX003 (ip), vehicle: saline with Tween-80
[6] = dose: 100.0 mg/kg/injection, schedule: Q04DX003 (ip), vehicle: saline with Tween-80
[7] = dose: 200.0 mg/kg/injection, schedule: Q04DX003 (ip), vehicle: saline with Tween-80
[8] = dose: 100.0 mg/kg/injection, schedule: Q04DX003 (ip), vehicle: Klucel (hydroxypropylcellulose) (HPC)
[9] = dose: 200.0 mg/kg/injection, schedule: Q04DX003 (ip), vehicle: Klucel (hydroxypropylcellulose) (HPC)
[10] = dose: 400.0 mg/kg/injection, schedule: Q04DX003 (ip), vehicle: Klucel (hydroxypropylcellulose) (HPC)
[11] = dose: 25.0 mg/kg/injection, schedule: Q01DX009 (ip), vehicle: saline with Tween-80
[12] = dose: 200.0 mg/kg/injection, schedule: Q01DX009 (ip), vehicle: Klucel (hydroxypropylcellulose) (HPC)
[13] = dose: 100.0 mg/kg/injection, schedule: Q04DX003 (ip), vehicle: saline

Compound: CCOP(=S)(OCC)OP(=S)(OCC)OCC
- T/C (dose: 1.0 mg/kg/injection, schedule: Q04DX003 (ip), vehicle: other): 111 % of control
- T/C (dose: 2.0 mg/kg/injection, schedule: Q04DX003 (ip), vehicle: other): 106 % of control
- T/C (dose: 4.0 mg/kg/injection, schedule: Q04DX003 (ip), vehicle: other): 106 % of control

Compound: Fc1ccc(NC(=S)SCc2ccc3c(c2)OCO3)cc1F
- T/C (dose: 50.0 mg/kg/injection, schedule: Q01DX009 (ip), vehicle: saline + alcohol): 116 % of control
- T/C [1]: 109 % of control
- T/C (dose: 100.0 mg/kg/injection, schedule: Q01DX009 (ip), vehicle: saline + alcohol): 116 % of control
- T/C [2]: 116 % of control
- T/C [3]: 155 % of control

Compound: Nc1cccs1
- T/C (dose: 9.38 mg/kg/injection, schedule: Q01DX009 (ip), vehicle: other): 104 % of control
- T/C (dose: 18.75 mg/kg/injection, schedule: Q01DX009 (ip), vehicle: other): 100 % of control
- T/C (dose: 37.5 mg/kg/injection, schedule: Q01DX009 (ip), vehicle: other): 100 % of control
- T/C [1]: 98 % of control
- T/C (dose: 75.0 mg/kg/injection, schedule: Q01DX009 (ip), vehicle: other): 98 % of control
- T/C [2]: 116 % of control
- T/C (dose: 150.0 mg/kg/injection, schedule: Q01DX009 (ip), vehicle: other): 101 % of control
- T/C [3]: 114 % of control
- T/C [4]: 87 % of control

Compound: CCN(CC)CC(Cl)CN(CC)CC
- T/C [5]: 110 % of control
- T/C [6]: 105 % of control
- T/C [7]: 100 % of control

Compound: CC(=O)OC(C)(C)/C=C/C(=O)[C@](C)(O)[C@H]1[C@H](O)C[C@@]2(C)[C@@H]3CC=C4[C@@H](C[C@H](O)[C@H](O)C4(C)C)[C@]3(C)C(=O)C[C@]12C
- T/C (dose: 80.0 mg/kg/injection, schedule: Q01DX010 (ip), vehicle: saline): 109 % of control
- T/C (dose: 120.0 mg/kg/injection, schedule: Q01DX010 (ip), vehicle: saline): 122 % of control
- T/C (dose: 180.0 mg/kg/injection, schedule: Q01DX010 (ip), vehicle: saline): 118 % of control

Compound: Cc1ncc([N+](=O)[O-])n1CCO
- T/C (dose: 50.0 mg/kg/injection, schedule: Q04DX003 (ip), vehicle: Klucel (hydroxypropylcellulose) (HPC)): 100 % of control
- T/C [8]: 100 % of control
- T/C [9]: 95 % of control
- T/C [10]: 91 % of control

Compound: CCC(=O)O[C@H]1CC[C@H]2[C@@H]3CC(=C(Br)Br)C4=CC(=O)CC[C@]4(C)[C@H]3CC[C@]12C
- T/C (dose: 12.5 mg/kg/injection, schedule: Q01DX009 (ip), vehicle: saline with Tween-80): 91 % of control
- T/C [11]: 100 % of control
- T/C [1]: 86 % of control and 90 % of control

Compound: Cc1cc2c(c(O)c1-c1c(C)cc(O)c3c1C(=O)C=CC3=O)C(=O)C=CC2=O
- T/C (dose: 1.25 mg/kg/injection, schedule: Q01DX009 (ip), vehicle: saline with Tween-80): 107 % of control
- T/C (dose: 2.5 mg/kg/injection, schedule: Q01DX009 (ip), vehicle: saline with Tween-80): 114 % of control
- T/C (dose: 5.0 mg/kg/injection, schedule: Q01DX009 (ip), vehicle: saline with Tween-80): 103 % of control

Compound: O=[N+]([O-])c1ccc(NS(=O)(=O)c2cc(Cl)ccc2Cl)c([N+](=O)[O-])c1
- T/C [1]: 105 % of control
- T/C [2]: 102 % of control
- T/C [3]: 110 % of control

Compound: NC(=S)N/N=C\c1[nH]c(=O)nc2ccccc12
- T/C [8]: 100 % of control
- T/C [9]: 100 % of control
- T/C [10]: 95 % of control

Compound: COc1ccc2ccccc2c1C1NC(=O)c2ccccc2N1 (stereo not given)
- T/C (dose: 25.0 mg/kg/injection, schedule: Q01DX009 (ip), vehicle: Klucel (hydroxypropylcellulose) (HPC)): 115 % of control
- T/C (dose: 50.0 mg/kg/injection, schedule: Q01DX009 (ip), vehicle: Klucel (hydroxypropylcellulose) (HPC)): 100 % of control
- T/C [12]: 166 % of control

Compound: O=C1NC(c2cccc3c2OCO3)N=C2Oc3ccccc3C=C12 (stereo not given)
- T/C [1]: 98 % of control
- T/C [2]: 93 % of control
- T/C [3]: 93 % of control

Compound: O=C(Nc1cccc(Cl)c1)NN(c1ccccc1)C1CCS(=O)(=O)C1 (stereo not given)
- T/C [1]: 99 % of control
- T/C [2]: 98 % of control
- T/C [3]: 100 % of control

Compound: CC(=O)c1ccccc1I
- T/C (dose: 100.0 mg/kg/injection, schedule: Q01DX009 (ip), vehicle: Klucel (hydroxypropylcellulose) (HPC)): 100 % of control
- T/C [8]: 104 % of control
- T/C [12]: 95 % of control
- T/C [9]: 100 % of control
- T/C (dose: 400.0 mg/kg/injection, schedule: Q01DX009 (ip), vehicle: Klucel (hydroxypropylcellulose) (HPC)): 100 % of control
- T/C [10]: 95 % of control

Compound: O=C(/C=C/c1ccc(Cl)c(Cl)c1)c1ccc(Cl)cc1
- T/C (dose: 12.5 mg/kg/injection, schedule: Q04DX003 (ip), vehicle: saline with Tween-80): 100 % of control
- T/C (dose: 25.0 mg/kg/injection, schedule: Q04DX003 (ip), vehicle: saline with Tween-80): 100 % of control
- T/C [5]: 90 % of control

Compound: CCOC(=O)C1(c2ccccc2)CCCN(C)CC1 (stereo not given)
- T/C [13]: 94 % of control

Compound: Cc1[nH]n(CCO)c(=O)c1N=O
- T/C (dose: 15.0 mg/kg/injection, schedule: Q01DX009 (ip), vehicle: saline with Tween-80): 95 % of control
- T/C (dose: 30.0 mg/kg/injection, schedule: Q01DX009 (ip), vehicle: saline with Tween-80): 93 % of control
- T/C (dose: 60.0 mg/kg/injection, schedule: Q01DX009 (ip), vehicle: saline with Tween-80): 100 % of control

Compound: C[n+]1ccc2ccccc2c1
- T/C (dose: 25.0 mg/kg/injection, schedule: Q01DX009 (ip), vehicle: saline): 100 % of control
- T/C (dose: 50.0 mg/kg/injection, schedule: Q01DX009 (ip), vehicle: saline): 100 % of control
- T/C (dose: 50.0 mg/kg/injection, schedule: Q04DX003 (ip), vehicle: saline): 104 % of control
- T/C (dose: 100.0 mg/kg/injection, schedule: Q01DX009 (ip), vehicle: saline): 104 % of control
- T/C [13]: 100 % of control

Compound: COC1C(OC(=O)c2ccc(C)[nH]2)C(O)C(Oc2ccc3c(O)c(NC(=O)c4c[nH]c(C(=O)Nc5c(O)c6ccc(OC7OC(C)(C)C(OC)C(OC(=O)c8ccc(C)[nH]8)C7O)c(C)c6oc5=O)c4C)c(=O)oc3c2C)OC1(C)C (stereo not given)
- T/C [2]: 90 % of control
- T/C [3]: 109 % of control
- T/C [4]: 163 % of control

Compound: O=Cc1ccc(C=O)c(Cl)c1
- T/C [11]: 104 % of control
- T/C [1]: 90 % of control
- T/C (dose: 88.0 mg/kg/injection, schedule: Q04DX003 (ip), vehicle: saline sonified): 105 % of control
- T/C [2]: 118 % of control
- T/C (dose: 132.0 mg/kg/injection, schedule: Q04DX003 (ip), vehicle: saline sonified): 100 % of control
- T/C (dose: 200.0 mg/kg/injection, schedule: Q04DX003 (ip), vehicle: saline sonified): 100 % of control
- T/C (dose: 300.0 mg/kg/injection, schedule: Q04DX003 (ip), vehicle: saline sonified): 120 % of control

Compound: CC(=O)OC1C(C=C(C)C)OC2CC3(C)C4=C(CCC3(C)C2C1C)C1(C)CCC(O)C(C)(C)C1CC4 (stereo not given)
- T/C (dose: 50.0 mg/kg/injection, schedule: Q01DX010 (sc), vehicle: steriod suspending solution): 90 % of control
- T/C (dose: 100.0 mg/kg/injection, schedule: Q01DX010 (sc), vehicle: steriod suspending solution): 90 % of control
- T/C (dose: 200.0 mg/kg/injection, schedule: Q01DX010 (sc), vehicle: steriod suspending solution): 90 % of control
- T/C (dose: 400.0 mg/kg/injection, schedule: Q01DX010 (sc), vehicle: steriod suspending solution): 86 % of control

Compound: C[As](C)Sc1ccnc(S[As](C)C)n1
- T/C [5]: 100 % of control
- T/C [6]: 100 % of control
- T/C [7]: 104 % of control

Compound: COC(=O)C(Br)C(OC)c1ccc(Cl)cc1 (stereo not given)
- T/C [6]: 109 % of control
- T/C [7]: 109 % of control
- T/C (dose: 400.0 mg/kg/injection, schedule: Q04DX003 (ip), vehicle: saline with Tween-80): 118 % of control

Compound: CC1=COC2CCCCC2O1 (stereo not given) (tested in a mixture with another compound)
- T/C (dose: 100.0 mg/kg/injection, schedule: Q01DX009 (ip), vehicle: acetone): 104 % of control
- T/C (dose: 200.0 mg/kg/injection, schedule: Q01DX009 (ip), vehicle: acetone): 96 % of control
- T/C (dose: 400.0 mg/kg/injection, schedule: Q01DX009 (ip), vehicle: acetone): 96 % of control

Compound: Cc1cc(C(=O)NN)nn1CCO
- T/C (dose: 87.5 mg/kg/injection, schedule: Q01DX009 (ip), vehicle: saline with Tween-80): 89 % of control
- T/C (dose: 175.0 mg/kg/injection, schedule: Q01DX009 (ip), vehicle: saline with Tween-80): 88 % of control
- T/C (dose: 350.0 mg/kg/injection, schedule: Q01DX009 (ip), vehicle: saline with Tween-80): 114 % of control

Compound: CCOC(=O)c1c[nH]n2c(=S)ncnc12
- T/C [2]: 100 % of control and 109 % of control
- T/C [3]: 110 % of control
- T/C [4]: 104 % of control
